Source: ChEMBL document CHEMBL4814027, “Synthesis and biological evaluation of naphthoquinone phenacylimidazolium derivatives” (Bioorg Med Chem Lett, 2021)

What was measured:
[1] = Selectivity ratio of IC50 for mouse L929 cells to IC50 for human HeLa cells; format: toxicity; settings: L929 cells versus HeLa cells, read-out: Ratio IC50
L929 = assay: Cytotoxicity against mouse L929 cells by MTT assay
A549 = assay: Cytotoxicity against human A549 cells by MTT assay
[2] = Selectivity ratio of IC50 for mouse L929 cells to IC50 for human A549 cells; format: toxicity; settings: L929 cells versus A549 cells, read-out: Ratio IC50
MCF7 = assay: Cytotoxicity against human MCF7 cells by MTT assay; format: functional, cell-based
[3] = Selectivity ratio of IC50 for mouse L929 cells to IC50 for human MCF7 cells; format: toxicity; settings: L929 cells versus MCF7 cells, read-out: Ratio IC50
HeLa = assay: Cytotoxicity against human HeLa cells by MTT assay; format: functional, cell-based

Structure (SMILES) | selectivity ratio [1] | IC50 (L929) | IC50 (A549) | selectivity ratio [2] | IC50 (MCF7) | selectivity ratio [3] | IC50 (HeLa)
CC(C)Cn1c[n+](CC(=O)c2ccc(F)cc2)c2c1C(=O)c1ccccc1C2=O | 40 | 16.4 µM | 0.2 µM | 82 | 0.75 µM | 21.9 | 0.41 µM
O=C(C[n+]1cn(-c2ccccc2)c2c1C(=O)c1ccccc1C2=O)c1ccc([N+](=O)[O-])cc1 | 1.53 | 31 µM | 40.4 µM | 0.77 | 59.1 µM | 0.52 | 20.3 µM
CC(C)Cn1c[n+](CC(=O)c2ccccc2[N+](=O)[O-])c2c1C(=O)c1ccccc1C2=O | 1.81 | 133 µM | 35.2 µM | 3.78 | 55.4 µM | 2.4 | 73.6 µM
Cn1c[n+](CC(=O)c2ccccc2)c2c1C(=O)c1ccccc1C2=O | 19.9 | 29.9 µM | 0.42 µM | 71.2 | 0.37 µM | 80.8 | 1.5 µM
C#CCn1c[n+](CC(=O)c2ccc([N+](=O)[O-])cc2)c2c1C(=O)c1ccccc1C2=O | 1.1 | 19 µM | 15.1 µM | 1.26 | 40.9 µM | 0.46 | 17.2 µM
CC(C)Cn1c[n+](CC(=O)c2cccc([N+](=O)[O-])c2)c2c1C(=O)c1ccccc1C2=O | 3.86 | 16.2 µM | 2.9 µM | 5.59 | 2.8 µM | 5.79 | 4.2 µM
Cn1c[n+](CC(=O)c2ccc(C(F)(F)F)cc2)c2c1C(=O)c1ccccc1C2=O | 2.1 | 19.3 µM | 1.3 µM | 14.9 | 7.4 µM | 2.61 | 9.2 µM
COc1ccc(C(=O)C[n+]2cn(C)c3c2C(=O)c2ccccc2C3=O)cc1 | 7.31 | 11.7 µM | 0.24 µM | 48.8 | 0.71 µM | 16.5 | 1.6 µM
CC(C)Cn1c[n+](CC(=O)N(C)C)c2c1C(=O)c1ccccc1C2=O | 4.59 | 58.8 µM | 0.4 µM | 147 | 65.6 µM | 0.9 | 12.8 µM
CCCn1c[n+](CC(=O)c2ccc([N+](=O)[O-])cc2)c2c1C(=O)c1ccccc1C2=O | 2.88 | 24.2 µM | 3 µM | 8.07 | 8.3 µM | 2.92 | 8.4 µM
CC(C)Cn1c[n+](CC(=O)c2ccc3ccccc3c2)c2c1C(=O)c1ccccc1C2=O | 4.12 | 17.7 µM | 1.3 µM | 13.6 | 2.7 µM | 6.56 | 4.3 µM
Cn1c[n+](CC(=O)c2ccco2)c2c1C(=O)c1ccccc1C2=O | 2.78 | 13.6 µM | 0.1 µM | 136 | 1.4 µM | 9.71 | 4.9 µM
CC(C)Cn1c[n+](CC(=O)C(C)(C)C)c2c1C(=O)c1ccccc1C2=O | 1.11 | 10.4 µM | 3.3 µM | 3.15 | 10.4 µM | 1 | 9.4 µM
CC(C)Cn1c[n+](CC(=O)c2ccco2)c2c1C(=O)c1ccccc1C2=O | 14.2 | 8.5 µM | 0.37 µM | 23 | 0.32 µM | 26.6 | 0.6 µM
Cn1c[n+](CC(=O)c2ccc(F)cc2)c2c1C(=O)c1ccccc1C2=O | 5.87 | 18.2 µM | 1.5 µM | 12.1 | 0.34 µM | 53.5 | 3.1 µM
O=C(C[n+]1cn(C2CC2)c2c1C(=O)c1ccccc1C2=O)c1ccc([N+](=O)[O-])cc1 | 0.27 | 6.1 µM | 12.3 µM | 0.5 | 60.4 µM | 0.1 | 22.2 µM
CN(C)C(=O)C[n+]1cn(C)c2c1C(=O)c1ccccc1C2=O | 21.5 | 4.3 µM | 0.1 µM | 43 | 7.6 µM | 0.57 | 0.2 µM
Cn1c[n+](CC(=O)c2cccs2)c2c1C(=O)c1ccccc1C2=O | 3.27 | 22.9 µM | 0.3 µM | 76.3 | 0.94 µM | 24.4 | 7 µM
